According to US20220395553A1, “CXCR4 ANTAGONIST PEPTIDES” (COHBAR, INC., priority 2019, published 2022):
Square brackets hold non-standard residues; d marks the D form. Peptide text beside a SMILES is read from it.

Molecular target: human CXCR4 (Homo sapiens, UniProt P61073)
Assay: CXCR4/CXCL12 binding, HTRF format, single concentration (Example 23)
Design: host or cells: HEK293 (Tag-lite CXCR4 cells, frozen aliquots, transient expression)
Settings: 15 nM CXCR4R fluorescent probe, 3 hours, HEK293 Tag-lite CXCR4 cells
Procedure: Peptides were initially prepared as 1 mM stock in H2O and tested at a final concentration of 400 nM. Following the manufacture's protocol, a frozen aliquot of Tag-lite CXCR4 cells was thawed and immediately seeded onto 384-well plates in TLB. Immediately following the addition of cells, 400 nM peptide (final concentration) in TLB was added to the appropriate well. Then 15 nM (final concentration; EC80) of CXCR4R fluorescent probe was added to each well to initiate the HTRF assay. The plates were covered in aluminum foil and left at room temperature for 3 hours. Following the 3 hour incubation period, the plates were removed from the incubator and fluorescence measured using a Cytation 1 plate reader using a HTRF filter cube ([…]; BioTek; Winooski, Vt.). According manufacture's instruction data reduction was performed by calculating the ratio of 665 nm signal (TRF of 665 nm excitation by 620 emission; amount of CXCR4R fluorescent probe bound to terbium labeled CXCR receptor)/620 nm signal (620 excitation by 330 nm light source; normalization factor for amount of terbium labeled CXCR4 receptor in well)×10,000.

Chain of human CXCR4 (P61073 whole entry): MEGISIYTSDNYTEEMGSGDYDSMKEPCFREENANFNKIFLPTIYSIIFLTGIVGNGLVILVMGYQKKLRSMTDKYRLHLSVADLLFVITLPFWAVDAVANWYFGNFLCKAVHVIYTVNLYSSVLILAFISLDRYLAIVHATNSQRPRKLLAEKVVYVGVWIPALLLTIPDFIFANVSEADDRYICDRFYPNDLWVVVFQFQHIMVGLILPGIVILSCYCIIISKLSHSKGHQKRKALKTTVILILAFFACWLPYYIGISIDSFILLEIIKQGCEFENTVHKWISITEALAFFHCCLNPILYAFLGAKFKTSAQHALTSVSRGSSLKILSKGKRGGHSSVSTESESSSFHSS

Row | Compound | Percent Inhibition of CXCR4/CXCL12 Binding (400 nM peptide) [%]
1 | CC(C)C[C@H](NC(=O)[C@H](CO)NC(=O)[C@H](CO)NC(=O)[C@H](CCCNC(=N)N)NC(=O)[C@@H](NC(=O)[C@H](CO)NC(=O)[C@H](Cc1c[nH]cn1)NC(=O)[C@H](Cc1c[nH]cn1)NC(=O)[C@H](Cc1ccc(O)cc1)NC(=O)[C@H](CCCNC(=N)N)NC(=O)[C@@H](N)CCCNC(=N)N)C(C)C)C(=O)N[C@@H](CCCNC(=N)N)C(=O)N1CCC[C@H]1C(=O)N[C@@H](Cc1ccc(O)cc1)C(=O)N[C@H](C(=O)N[C@@H](CCCCN)C(=O)O)[C@@H](C)O [compound 10] (H-RRYHHSVRSSLRPYTK-OH; N-terminus and C-terminus assumed) | −8
2 | CC(C)C[C@H](NC(=O)[C@H](CO)NC(=O)[C@H](CO)NC(=O)[C@H](CCCNC(=N)N)NC(=O)[C@@H](NC(=O)[C@H](CO)NC(=O)[C@H](Cc1c[nH]cn1)NC(=O)[C@H](Cc1c[nH]cn1)NC(=O)[C@H](Cc1ccc(O)cc1)NC(=O)[C@H](CCCNC(=N)N)NC(=O)[C@H](CCC(=O)O)NC(=O)[C@@H](N)CC(C)C)C(C)C)C(=O)N[C@@H](CCCNC(=N)N)C(=O)N1CCC[C@H]1C(=O)N[C@@H](Cc1ccc(O)cc1)C(=O)O [compound 19] (H-LERYHHSVRSSLRPY-OH; N-terminus and C-terminus assumed) | 44
3 | CC(C)C[C@H](NC(=O)[C@H](CO)NC(=O)[C@H](CO)NC(=O)[C@H](CCCNC(=N)N)NC(=O)[C@@H](NC(=O)[C@H](CO)NC(=O)[C@H](Cc1c[nH]cn1)NC(=O)[C@H](Cc1c[nH]cn1)NC(=O)[C@H](Cc1ccc(O)cc1)NC(=O)[C@H](CCCNC(=N)N)NC(=O)[C@H](CCC(=O)O)NC(=O)[C@@H](N)CC(C)C)C(C)C)C(=O)N[C@@H](CCCNC(=N)N)C(=O)N1CCC[C@H]1C(=O)O [compound 20] (H-LERYHHSVRSSLRP-OH; N-terminus and C-terminus assumed) | 37
4 | CC(C)C[C@H](NC(=O)[C@H](CO)NC(=O)[C@H](CO)NC(=O)[C@H](CCCNC(=N)N)NC(=O)[C@@H](NC(=O)[C@H](CO)NC(=O)[C@H](Cc1c[nH]cn1)NC(=O)[C@H](Cc1c[nH]cn1)NC(=O)[C@H](Cc1ccc(O)cc1)NC(=O)[C@H](CCCNC(=N)N)NC(=O)[C@H](CCC(=O)O)NC(=O)[C@@H](N)CC(C)C)C(C)C)C(=O)N[C@@H](CCCNC(=N)N)C(=O)O [compound 21] (H-LERYHHSVRSSLR-OH; N-terminus and C-terminus assumed) | 20
5 | CC(C)C[C@H](N)C(=O)N[C@@H](CCC(=O)O)C(=O)N[C@@H](CCCNC(=N)N)C(=O)N[C@@H](Cc1ccc(O)cc1)C(=O)N[C@@H](Cc1c[nH]cn1)C(=O)N[C@@H](Cc1c[nH]cn1)C(=O)N[C@@H](CO)C(=O)N[C@H](C(=O)N[C@@H](CCCNC(=N)N)C(=O)N[C@@H](CO)C(=O)N[C@@H](CO)C(=O)O)C(C)C [compound 23] (H-LERYHHSVRSS-OH; N-terminus and C-terminus assumed) | 23
6 | CC(C)C[C@H](NC(=O)[C@H](CO)NC(=O)[C@H](CO)NC(=O)[C@H](CCCNC(=N)N)NC(=O)[C@@H](NC(=O)[C@H](CO)NC(=O)[C@H](Cc1c[nH]cn1)NC(=O)[C@H](Cc1c[nH]cn1)NC(=O)[C@H](Cc1ccc(O)cc1)NC(=O)[C@H](CCCNC(=N)N)NC(=O)[C@H](CCCNC(=N)N)NC(=O)[C@@H](N)CC(C)C)C(C)C)C(=O)N[C@@H](CCCNC(=N)N)C(=O)N1CCC[C@H]1C(=O)N[C@@H](Cc1ccc(O)cc1)C(=O)N[C@H](C(=O)O)[C@@H](C)O [compound 24] (H-LRRYHHSVRSSLRPYT-OH; N-terminus and C-terminus assumed) | 8
7 | CC(C)C[C@H](NC(=O)[C@H](CO)NC(=O)[C@H](CO)NC(=O)[C@H](CCCNC(=N)N)NC(=O)[C@@H](NC(=O)[C@H](CO)NC(=O)[C@H](Cc1c[nH]cn1)NC(=O)[C@H](Cc1c[nH]cn1)NC(=O)[C@H](Cc1ccc(O)cc1)NC(=O)[C@H](CCCNC(=N)N)NC(=O)[C@H](CCCNC(=N)N)NC(=O)[C@@H](N)CC(C)C)C(C)C)C(=O)N[C@@H](CCCNC(=N)N)C(=O)N1CCC[C@H]1C(=O)N[C@@H](Cc1ccc(O)cc1)C(=O)O [compound 25] (H-LRRYHHSVRSSLRPY-OH; N-terminus and C-terminus assumed) | 0
8 | CC(C)C[C@H](NC(=O)[C@H](CO)NC(=O)[C@H](CO)NC(=O)[C@H](CCCNC(=N)N)NC(=O)[C@@H](NC(=O)[C@H](CO)NC(=O)[C@H](Cc1c[nH]cn1)NC(=O)[C@H](Cc1c[nH]cn1)NC(=O)[C@H](Cc1ccc(O)cc1)NC(=O)[C@H](CCCNC(=N)N)NC(=O)[C@H](CCCNC(=N)N)NC(=O)[C@@H](N)CC(C)C)C(C)C)C(=O)N[C@@H](CCCNC(=N)N)C(=O)N1CCC[C@H]1C(=O)O [compound 26] (H-LRRYHHSVRSSLRP-OH; N-terminus and C-terminus assumed) | 1
9 | CC(C)C[C@H](NC(=O)[C@H](CO)NC(=O)[C@H](CO)NC(=O)[C@H](CCCNC(=N)N)NC(=O)[C@@H](NC(=O)[C@H](CO)NC(=O)[C@H](Cc1c[nH]cn1)NC(=O)[C@H](Cc1c[nH]cn1)NC(=O)[C@H](Cc1ccc(O)cc1)NC(=O)[C@H](CCCNC(=N)N)NC(=O)[C@H](CCCNC(=N)N)NC(=O)[C@@H](N)CC(C)C)C(C)C)C(=O)N[C@@H](CCCNC(=N)N)C(=O)O [compound 27] (H-LRRYHHSVRSSLR-OH; N-terminus and C-terminus assumed) | 10
10 | CC(C)C[C@H](N)C(=O)N[C@@H](CCCNC(=N)N)C(=O)N[C@@H](CCCNC(=N)N)C(=O)N[C@@H](Cc1ccc(O)cc1)C(=O)N[C@@H](Cc1c[nH]cn1)C(=O)N[C@@H](Cc1c[nH]cn1)C(=O)N[C@@H](CO)C(=O)N[C@H](C(=O)N[C@@H](CCCNC(=N)N)C(=O)N[C@@H](CO)C(=O)N[C@@H](CO)C(=O)O)C(C)C [compound 29] (H-LRRYHHSVRSS-OH; N-terminus and C-terminus assumed) | 14
11 | CC(C)C[C@H](NC(=O)[C@H](CO)NC(=O)[C@H](CO)NC(=O)[C@H](CCCNC(=N)N)NC(=O)[C@@H](NC(=O)[C@H](CO)NC(=O)[C@H](Cc1c[nH]cn1)NC(=O)[C@H](CC(N)=O)NC(=O)[C@H](Cc1ccc(O)cc1)NC(=O)[C@H](CCCNC(=N)N)NC(=O)[C@H](CCC(=O)O)NC(=O)[C@@H](N)CC(C)C)C(C)C)C(=O)N[C@@H](CCCNC(=N)N)C(=O)N1CCC[C@H]1C(=O)N[C@@H](Cc1ccc(O)cc1)C(=O)N[C@H](C(=O)N[C@@H](CCCCN)C(=O)O)[C@@H](C)O [compound 42] (H-LERYNHSVRSSLRPYTK-OH; N-terminus and C-terminus assumed) | 32
12 | CC(C)C[C@H](NC(=O)[C@H](CO)NC(=O)[C@H](CO)NC(=O)[C@H](CCCNC(=N)N)NC(=O)[C@@H](NC(=O)[C@H](CO)NC(=O)[C@H](CC(N)=O)NC(=O)[C@H](Cc1c[nH]cn1)NC(=O)[C@H](Cc1ccc(O)cc1)NC(=O)[C@H](CCCNC(=N)N)NC(=O)[C@H](CCCNC(=N)N)NC(=O)[C@@H](N)CC(C)C)C(C)C)C(=O)N[C@@H](CCCNC(=N)N)C(=O)N1CCC[C@H]1C(=O)N[C@@H](Cc1ccc(O)cc1)C(=O)N[C@H](C(=O)N[C@@H](CCCCN)C(=O)O)[C@@H](C)O [compound 44] (H-LRRYHNSVRSSLRPYTK-OH; N-terminus and C-terminus assumed) | 0
13 | CC(C)C[C@H](NC(=O)[C@H](CO)NC(=O)[C@H](CO)NC(=O)[C@H](CCCNC(=N)N)NC(=O)[C@@H](C)NC(=O)[C@H](CO)NC(=O)[C@H](CC(N)=O)NC(=O)[C@H](Cc1c[nH]cn1)NC(=O)[C@H](Cc1ccc(O)cc1)NC(=O)[C@H](CCCNC(=N)N)NC(=O)[C@H](CCC(=O)O)NC(=O)[C@@H](N)CC(C)C)C(=O)N[C@@H](CCCNC(=N)N)C(=O)N1CCC[C@H]1C(=O)N[C@@H](Cc1ccc(O)cc1)C(=O)N[C@H](C(=O)N[C@@H](CCCCN)C(=O)O)[C@@H](C)O [compound 46] (H-LERYHNS[dA]RSSLRPYTK-OH; N-terminus and C-terminus assumed) | −4
14 | CC(C)C[C@H](NC(=O)[C@H](CO)NC(=O)[C@H](CO)NC(=O)[C@H](CCCNC(=N)N)NC(=O)[C@@H](NC(=O)[C@H](CO)NC(=O)[C@H](Cc1c[nH]cn1)NC(=O)[C@H](CCC(N)=O)NC(=O)[C@H](Cc1ccc(O)cc1)NC(=O)[C@H](CCCNC(=N)N)NC(=O)[C@H](CCC(=O)O)NC(=O)[C@@H](N)CC(C)C)C(C)C)C(=O)N[C@@H](CCCNC(=N)N)C(=O)N1CCC[C@H]1C(=O)N[C@@H](Cc1ccc(O)cc1)C(=O)N[C@H](C(=O)N[C@@H](CCCCN)C(=O)O)[C@@H](C)O [compound 48] (H-LERYQHSVRSSLRPYTK-OH; N-terminus and C-terminus assumed) | 13
15 | CC(C)C[C@H](NC(=O)[C@H](CO)NC(=O)[C@H](CO)NC(=O)[C@H](CCCNC(=N)N)NC(=O)[C@@H](C)NC(=O)[C@H](CO)NC(=O)[C@H](Cc1c[nH]cn1)NC(=O)[C@H](CCC(N)=O)NC(=O)[C@H](Cc1ccc(O)cc1)NC(=O)[C@H](CCCNC(=N)N)NC(=O)[C@H](CCC(=O)O)NC(=O)[C@@H](N)CC(C)C)C(=O)N[C@@H](CCCNC(=N)N)C(=O)N1CCC[C@H]1C(=O)N[C@@H](Cc1ccc(O)cc1)C(=O)N[C@H](C(=O)N[C@@H](CCCCN)C(=O)O)[C@@H](C)O [compound 49] (H-LERYQHS[dA]RSSLRPYTK-OH; N-terminus and C-terminus assumed) | 20
